What all share (assay): NCI anticancer screen, dose series, 48 h
The test system of assay [1] is M14 melanoma.
Assay [2] concerns OVCAR-4 ovarian.
Assay [3] has as its system SK-MEL-2 melanoma.
Assay [4] deals with SW-620 colon.
Assay [5] deals with NCI-H460 lung.
Assay [6] deals with OVCAR-3 ovarian.
The subject of assay [7] is SN12C renal.
Assay [8] has as its system SNB-19 CNS.
Assay [9] has as its system CCRF-CEM leukemia.
In assay [10] the test system is SK-OV-3 ovarian.

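Briefly, cells in 96-well plates were exposed to five compound concentrations for 48 h, and endpoints were estimated by linear interpolation. Abbreviation: GI50, concentration required for 50% inhibition of growth. TGI marks complete inhibition of growth.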

`O[C@@]12Cc3c([nH]c4ccccc34)[C@@H]3Oc4cccc5c4[C@@]31CCN(CC1CC1)[C@@H]2C5`: the TGI in assay [1] turned out to be 39.4 µM; in assay [2], 41.3 µM; in assay [3], 41.5 µM; in assay [4] it was 25.7 µM; in [5], 60.9 µM; in assay [6], 36.8 µM. For the same compound, the TGI in [7] was 37 µM; in assay [8] it was 50.9 µM; in [9], 29.9 µM.
As to `CCOC(=O)c1c(C)n(-c2ccc(Cl)cc2)c2c1cc(O)c1[nH]c3c(c12)CCCC3`, the TGI was > 100 µM in [1]; > 100 µM in assay [2]; 92.9 µM in assay [3]; > 100 µM in [4]; > 100 µM in assay [5]; > 100 µM in assay [6]. Besides, the TGI in assay [7], in assay [8], in assay [9] and in assay [10] was > 100 µM each time.
For `CN1C(c2ccccc2)CC(=O)C(N)C1c1ccccc1` (stereo unspecified), the TGI in [1] is > 69.2 µM; in [2], > 100 µM; in assay [3], 41.1 µM; in [4], 57.1 µM; in assay [5], 55.6 µM; in assay [6], > 86.3 µM. The TGI in assay [7] was 97.6 µM; in assay [8], > 100 µM; in assay [9], 66 µM; in assay [10] it was > 100 µM.
For `Nc1nc(O)c2ncn([C@H]3CC[C@@H](CO)O3)c2n1`, the TGI in assay [1], in [2], in [3], in assay [4], in assay [5] and in assay [6] was > 100 µM throughout. Moreover, the TGI in assay [7], in [8], in assay [9] and in [10] was > 100 µM each time.
Regarding `Cc1ccc(-c2nc(N/N=C/C=C/c3ccccc3)c3ccccc3n2)cc1`, the TGI is > 100 µM in [1]; > 100 µM in assay [2]; 99.2 µM in [3]; > 100 µM in assay [4]; > 100 µM in assay [5]; > 100 µM in assay [6]. Also, the TGI is 99 µM in [7], > 100 µM in assay [8], > 100 µM in assay [9] and > 100 µM in assay [10].
For the compound `Cc1c(-c2ccccc2)[nH]c2cc(Cl)ccc2c1=O`, the TGI in assay [1] is > 100 µM; in [2], 66.3 µM; in [3], > 100 µM; in assay [5] it was > 100 µM; in [6] it was > 100 µM; in [7] it was > 100 µM. For the same compound, the TGI in assay [8], in [9] and in assay [10] was > 100 µM each time.
Consider `CCN1CCC(O)(/C=C/c2ccccc2C)C(C(=O)/C=C/c2ccccc2C)C1` (stereo unspecified), for which the TGI is 4.45 µM in assay [1]; 12.5 µM in assay [2]; 5.57 µM in assay [3]; 10.1 µM in [4]; 3.18 µM in assay [5]; 4.77 µM in assay [6]. The TGI was determined as 4.6 µM in assay [7], 4.85 µM in assay [9] and 21 µM in assay [10].
For the compound `c1cnc2c(c1)ccc1cccnc12`, the TGI in [1] is > 26.9 µM; in [2], > 88.4 µM; in assay [3] it was > 100 µM; in assay [4], > 100 µM; in [5], 7.98 µM; in assay [6], > 86.6 µM. For the same compound, the TGI in assay [7] was > 28.2 µM; in [8] it was > 100 µM; in assay [9] it was 5.5 µM; in assay [10], > 100 µM.
`CC1=C(O)C2=C(C(=O)C1=O)[C@@H](C)CC[C@@H]2[C@@H](C)C/C=C/C(C)(C)O`: the TGI in [1] was > 100 µM; in assay [3], > 100 µM; in assay [4], > 100 µM; in [5], > 100 µM; in assay [6] it was 79.2 µM; in assay [7] it was > 100 µM. The TGI in [8], in assay [9] and in assay [10] was > 100 µM throughout.
`Nc1[nH]c(=O)nc2c1cnn2C1CCCCO1` (stereo unspecified): the TGI in assay [1], in [2], in [3], in [4], in assay [5] and in assay [7] was > 100 µM throughout. Besides, the TGI in assay [8] and in assay [9] was > 100 µM in each case.
Take `C=C(C)C1Cc2c(c3ccccc3n(C)c2=O)O1` (stereo unspecified): the TGI in assay [1], in [3], in assay [4], in assay [5], in [6] and in assay [7] was > 100 µM each time. For the same compound, the TGI in [8], in assay [9] and in [10] was > 100 µM in each case.
Consider `c1ccc(-c2nc(N3CCNCC3)c3oc(-c4ccccc4)nc3n2)cc1`, for which the GI50 in [2] is 1.68 µM; in [3], 2.31 µM; in assay [4], 1.35 µM; in assay [5] it was 1.75 µM; in [6] it was 1.74 µM; in [7], 1.61 µM. For the same compound, the GI50 is 1.72 µM in assay [8], 1.63 µM in assay [9] and 1.88 µM in assay [10]. Moreover, the TGI in assay [2] worked out at 3.19 µM; in assay [3], 5.42 µM; in assay [4], 2.94 µM; in assay [5] it was 3.38 µM; in assay [6], 3.21 µM; in [7], 2.98 µM. The results for the TGI in [8], in [9] and in [10] were 3.15 µM, 4.08 µM and 3.8 µM, respectively.
